These results are taken from ChEMBL document CHEMBL1141021, “Anthranilimide-based glycogen phosphorylase inhibitors for the treatment of Type 2 diabetes: 2. Optimization of serine and threonine ether amino acid residues” (Bioorg Med Chem Lett, 2009).

The term AUC denotes concentration integrated over time. Lower therefore signals low exposure. As a reminder, the half-life is the time in which the quantity being followed falls by half. Read a low half-life as rapid decline. The bioavailability is the share of a dose that reaches the circulation, judged against a reference dose that is usually intravenous. A low value points to little systemic uptake.

Type in all cases: ADME, organism-based
For one data set, the system named is Rattus norvegicus. The data set can be described thus: Dose normalized AUC (0 to infinity) in Sprague-Dawley rat at 1 mg/kg, po. Also on record: dose 1 mg/kg, route oral, time infinity. To be noted: in vivo.
Data set [1] is described as follows: Half life in Sprague-Dawley rat at 10 mg/kg, po or […], iv. To be noted: in vivo.
The nature of data set [2]: Oral bioavailability in Sprague-Dawley rat at 10 mg/kg. The conditions noted are these: in vivo.
Data set [3] in a line: Volume of distribution at steady state in Sprague-Dawley rat at 10 mg/kg, po or […], iv. The conditions noted are these: in vivo, read-out: Vdss.
Data set [4] is described as follows: Clearance in Sprague-Dawley rat at 10 mg/kg, po or […], iv. To be noted: in vivo.

Regarding `Cc1cc(C)c(NC(=O)Nc2cc3ccccc3cc2C(=O)N[C@H](C(=O)O)[C@@H](C)OC(C)(C)C)c(C)c1`, in the data set with Rattus norvegicus, the AUC worked out at 514 ng·h/mL. In data set [1], this compound showed a half-life of 3 h. Also, the bioavailability in data set [2] turned out to be 40%. In addition, in data set [3], the Vd was 0.5 L/kg. In addition, the clearance in data set [4] was found to be 13 mL/min/kg.
On the same counts, the results for `Cc1cc(C)c(NC(=O)Nc2cc3ccccc3cc2C(=O)N[C@@H](COC(C)(C)C)C(=O)O)c(C)c1` are 256 ng·h/mL, 4 h, 17%, 1.9 L/kg and 26 mL/min/kg.
On the same counts, the results for `CCCC[C@H](NC(=O)c1cc2ccccc2cc1NC(=O)Nc1c(C)cc(C)cc1C)C(=O)O` are 320 ng·h/mL, 2.8 h, 8%, 0.6 L/kg and 4 mL/min/kg.
